Measured values taken from ChEMBL document CHEMBL3085750, “Discovery of 2-methylpyridine-based biaryl amides as γ-secretase modulators for the treatment of Alzheimer's disease” (Bioorg Med Chem Lett, 2013).

Tests used:
[1] = molecular target: Cytochrome P450 2D6 (Homo sapiens, UniProt P10635); test: Inhibition of CYP2D6 (unknown origin) after 10 mins; assay type: ADME
[2] = molecular target: Cytochrome P450 3A4 (Homo sapiens, UniProt P08684); test: Inhibition of CYP3A4 (unknown origin) after 5 mins; assay type: ADME
Sequence of Cytochrome P450 3A4 (P08684 whole entry): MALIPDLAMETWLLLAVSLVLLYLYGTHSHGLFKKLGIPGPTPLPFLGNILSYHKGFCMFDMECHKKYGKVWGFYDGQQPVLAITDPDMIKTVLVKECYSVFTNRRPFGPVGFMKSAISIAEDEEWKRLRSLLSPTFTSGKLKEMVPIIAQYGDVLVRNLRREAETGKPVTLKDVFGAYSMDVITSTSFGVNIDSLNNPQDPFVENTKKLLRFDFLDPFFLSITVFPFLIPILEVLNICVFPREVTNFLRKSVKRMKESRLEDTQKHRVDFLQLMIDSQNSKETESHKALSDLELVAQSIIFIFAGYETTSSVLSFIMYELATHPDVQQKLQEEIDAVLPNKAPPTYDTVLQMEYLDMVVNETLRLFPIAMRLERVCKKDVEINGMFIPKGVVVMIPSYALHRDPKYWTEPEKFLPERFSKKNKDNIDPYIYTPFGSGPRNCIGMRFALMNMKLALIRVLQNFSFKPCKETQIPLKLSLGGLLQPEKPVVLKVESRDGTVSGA

[3] = Metabolic stability in human liver microsomes at 1 uM after 30 mins; assay type: ADME; settings: read-out: Stability
[4] = Metabolic stability in rat liver microsomes at 1 uM after 30 mins; assay type: ADME; settings: read-out: Stability
[5] = molecular target: Gamma-secretase; test: Modulation of gamma-secretase in HEK293 cells expressing guinea pig Swedish mutant SFV-APP695sw assessed as inhibition of amyloid beta-42 production after 16 to 18 hrs by HTRF assay; assay type: cell-based, Homo sapiens

Sequence of Cytochrome P450 2D6 (P10635 whole entry): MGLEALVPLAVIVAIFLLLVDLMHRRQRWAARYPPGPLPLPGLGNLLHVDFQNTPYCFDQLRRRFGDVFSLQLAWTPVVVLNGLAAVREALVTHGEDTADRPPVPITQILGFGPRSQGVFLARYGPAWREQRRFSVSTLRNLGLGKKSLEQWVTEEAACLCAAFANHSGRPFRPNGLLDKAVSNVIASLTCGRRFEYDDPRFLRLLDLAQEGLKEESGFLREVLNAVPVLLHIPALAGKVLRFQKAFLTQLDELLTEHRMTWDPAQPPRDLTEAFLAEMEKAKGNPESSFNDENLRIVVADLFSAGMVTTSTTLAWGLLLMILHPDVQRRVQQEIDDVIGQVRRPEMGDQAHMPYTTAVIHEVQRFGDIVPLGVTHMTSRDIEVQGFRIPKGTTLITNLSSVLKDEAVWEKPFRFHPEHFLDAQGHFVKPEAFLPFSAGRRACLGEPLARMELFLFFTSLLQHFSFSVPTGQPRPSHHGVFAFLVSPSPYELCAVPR

Compound | IC50 [5] [nM] | also measured
Cc1nccn1-c1ccc(NS(=O)(=O)c2cc(Cl)cc(Cl)c2)cc1 | 9400 | IC50 [1]: > 27000 nM; IC50 [2]: > 27000 nM; microsomal CLint at 1 µM [3]: 22 µL/min/mg; microsomal CLint at 1 µM [4]: 113 µL/min/mg
Cc1cc(-c2ccc(NC(=O)C(C)c3cccc(-c4ccc(N(C)C)nc4)c3)cc2)ccn1 (centres undefined) | 170 | 
Cc1cc(-c2ccc(NC(=O)C(C)c3cccc(-c4ccncc4)c3)cc2)ccn1 (centres undefined) | 1200 | 
Cc1cc(-c2ccc(NC(=O)[C@@H](C)c3cccc(-c4ccc(N5CCOCC5)cc4)c3)cc2)ccn1 | 70 | 
O=S(=O)(Nc1ccc(-c2ccco2)cc1)c1cc(Cl)cc(Cl)c1 | > 10000 | IC50 [1]: > 27000 nM; microsomal CLint at 1 µM [3]: > 399 µL/min/mg; microsomal CLint at 1 µM [4]: > 399 µL/min/mg
Cc1cc(-c2ccc(NC(=O)C(C)c3ccccc3)cc2)ccn1 (centres undefined) | 6000 | 
Cc1cc(-c2ccc(NC(=O)Nc3cc(C(F)(F)F)cc(C(F)(F)F)c3)cc2)ccn1 | 1110 | 
COc1cc(C(=O)NCCC(c2ccccc2)c2ccccc2)ccc1-n1cnc(C)c1 | 320 | microsomal CLint at 1 µM [4]: > 399 µL/min/mg
COc1cc(C(=O)NCCc2ccc(Cl)cc2)ccc1-n1cnc(C)c1 | 420 | 
Cc1cccc(C(CC(C)C)C(=O)Nc2ccc(-c3ccnc(C)c3)cc2)c1 (single isomer, unassigned; isomer 1) | 180 | 
Cc1cc(-c2ccc(NC(=O)Cc3cc(C(F)(F)F)cc(C(F)(F)F)c3)nc2)ccn1 | > 10000 | 
Cc1cc(-c2ccc(NC(=O)C(C)c3cccc(-c4ccccn4)c3)cc2)ccn1 (centres undefined) | > 10000 | 
Cc1cc(-c2ccc(NC(=O)C(C)c3cccc(-c4cnc(N5CCOCC5)nc4)c3)cc2)ccn1 (centres undefined) | 650 | 
O=S(=O)(Nc1ccc(-c2cc[nH]n2)cc1)c1cc(Cl)cc(Cl)c1 | > 10000 | IC50 [1]: 11800 nM; IC50 [2]: 15300 nM; microsomal CLint at 1 µM [3]: 384 µL/min/mg; microsomal CLint at 1 µM [4]: > 399 µL/min/mg
Cc1cccc(C(CCCO)C(=O)Nc2ccc(-c3ccnc(C)c3)cc2)c1 (centres undefined) | > 10000 | 
COc1cc(NS(=O)(=O)c2cc(C(F)(F)F)cc(C(F)(F)F)c2)ccc1-c1ccnc(C)c1 | 530 | 
Cc1cccc(C(CC(C)C)C(=O)Nc2ccc(-c3ccnc(C)c3)cc2)c1 (stereo in doubt; 50) | 170 | 
CNc1ccc(-c2cccc(C(C)C(=O)Nc3ccc(-c4ccnc(C)c4)cc3)c2)cn1 (centres undefined) | 930 | 
Cc1cc(-c2ccc(NC(=O)C(C)c3cccc(-c4ccccc4)c3)cc2)ccn1 (centres undefined) | 660 | 
Cc1cc(-c2ccc(NC(=O)C(C)c3cccc(-c4ccc(C(=O)O)cc4)c3)cc2)ccn1 (centres undefined) | > 10000 | 
Cc1cc(-c2ccc(N(C)C(=O)Cc3cc(C(F)(F)F)cc(C(F)(F)F)c3)cc2)ccn1 | > 10000 | 
C=Cc1cc(-c2ccc(NS(=O)(=O)c3cc(C(F)(F)F)cc(C(F)(F)F)c3)cc2)ccn1 | 1260 | IC50 [1]: 700 nM; IC50 [2]: 4500 nM; microsomal CLint at 1 µM [3]: 193 µL/min/mg; microsomal CLint at 1 µM [4]: 169 µL/min/mg

Compound | IC50 [5] [nM] | also measured
CC(=O)c1ccc(-c2cccc(C(C)C(=O)Nc3ccc(-c4ccnc(C)c4)cc3)c2)cc1 (centres undefined) | 140 | 
Cc1cc(-c2ccc(NC(=O)C(C)c3cccc(N4CCN(C)CC4)c3)cc2)ccn1 (centres undefined) | > 10000 | 
Cc1cc(-c2ccc(NC(=O)C(C)c3cccc(-c4ccc(NC(C)C)nc4)c3)cc2)ccn1 (centres undefined) | 180 | 
CCc1cc(-c2ccc(NS(=O)(=O)c3cc(C(F)(F)F)cc(C(F)(F)F)c3)cc2)ccn1 | 210 | IC50 [1]: 700 nM; IC50 [2]: 12200 nM; microsomal CLint at 1 µM [3]: 371 µL/min/mg; microsomal CLint at 1 µM [4]: 324 µL/min/mg
Cc1cc(-c2ccc(NC(=O)Cc3cc(C(F)(F)F)cc(C(F)(F)F)c3)cn2)ccn1 | 1350 | 
O=S(=O)(Nc1ccc(-c2ncccn2)cc1)c1cc(Cl)cc(Cl)c1 | > 10000 | IC50 [1]: > 27000 nM; IC50 [2]: 16200 nM; microsomal CLint at 1 µM [3]: > 399 µL/min/mg; microsomal CLint at 1 µM [4]: > 399 µL/min/mg
CCCC(C(=O)Nc1ccc(-c2ccnc(C)c2)cc1)c1cccc(C)c1 (centres undefined) | 540 | 
O=S(=O)(Nc1ccc(-c2cncnc2)cc1)c1cc(Cl)cc(Cl)c1 | > 10000 | IC50 [1]: 7200 nM; IC50 [2]: 3500 nM; microsomal CLint at 1 µM [3]: 45 µL/min/mg; microsomal CLint at 1 µM [4]: > 399 µL/min/mg
Cc1noc(-c2ccc(NS(=O)(=O)c3cc(Cl)cc(Cl)c3)cc2)n1 | > 10000 | IC50 [1]: > 27000 nM; IC50 [2]: > 27000 nM; microsomal CLint at 1 µM [3]: > 399 µL/min/mg; microsomal CLint at 1 µM [4]: > 399 µL/min/mg
Cc1cccc(CC(=O)Nc2ccc(-c3ccnc(C)c3)cc2)c1 | 2780 | 
Cc1cc(-c2ccc(NC(=O)C(C)c3cccc(-c4cccc(C#N)c4)c3)cc2)ccn1 (centres undefined) | 220 | 
COc1ccc(-c2cccc(C(C)C(=O)Nc3ccc(-c4ccnc(C)c4)cc3)c2)cc1 (centres undefined) | 150 | 
Cc1cc(-c2ccc(NC(=O)C(C)c3cccc(N4CCOCC4)c3)cc2)ccn1 (centres undefined) | 4800 | 
Cc1cc(-c2ccc(NC(=O)C(O)c3cc(C(F)(F)F)cc(C(F)(F)F)c3)cc2)ccn1 (centres undefined) | 2130 | 
COc1cc(NS(=O)(=O)c2ccc(Cl)c(Cl)c2)ccc1-n1cnc(C)c1 | 900 | 
Cc1cc(-c2ccc(NC(=O)C(C)c3cccc(-c4ccccc4C#N)c3)cc2)ccn1 (centres undefined) | 570 | 
Cc1cc(-c2cccc(NC(=O)Cc3cc(C(F)(F)F)cc(C(F)(F)F)c3)c2)ccn1 | > 10000 | 
Cc1cc(-c2ccc(NC(=O)C(C)c3cc(C(F)(F)F)cc(C(F)(F)F)n3)cc2)ccn1 (centres undefined) | > 10000 | 
Cc1cc(-c2ccc(NC(=O)C(C)c3cccc(N4CCN(c5ccccc5)CC4)c3)cc2)ccn1 (centres undefined) | 160 | 
Cc1cc(C)cc(C(C)C(=O)Nc2ccc(-c3ccnc(C)c3)cc2)c1 (centres undefined) | 570 | 
CCCCC(C(=O)Nc1ccc(-c2ccnc(C)c2)cc1)c1cccc(C)c1 (centres undefined) | 490 | 
Cc1cc(-c2ccc(NC(=O)C(C)c3cc(C#N)cc(C(F)(F)F)c3)cc2)ccn1 (centres undefined) | 7000 | 

Compound | IC50 [5] [nM] | also measured
Cc1cc(-c2ccc(NS(=O)(=O)c3cc(C(F)(F)F)cc(C(F)(F)F)c3)cc2)ccn1 | 280 | IC50 [1]: 2000 nM; IC50 [2]: > 27000 nM; microsomal CLint at 1 µM [3]: 399 µL/min/mg; microsomal CLint at 1 µM [4]: 290 µL/min/mg
COc1cc(-c2ccnc(C)c2)ccc1NS(=O)(=O)c1cc(C(F)(F)F)cc(C(F)(F)F)c1 | 1830 | IC50 [1]: 1900 nM; IC50 [2]: 2200 nM; microsomal CLint at 1 µM [3]: 306 µL/min/mg; microsomal CLint at 1 µM [4]: > 399 µL/min/mg
COc1cc(NC(=O)Cc2cc(C(F)(F)F)cc(C(F)(F)F)c2)ccc1-n1cnc(C)c1 | 1450 | 
Cc1cc(-c2ccc(NC(=O)C(C)c3cccc(-c4ccc(N5CCOCC5)cc4)c3)cc2)ccn1 (centres undefined) | 70 | 
Cc1cc(-c2ccc(NC(=O)Cc3cc(C(F)(F)F)cc(C(F)(F)F)c3)cc2)ccn1 | 460 | IC50 [1]: 13000 nM; IC50 [2]: > 27000 nM; microsomal CLint at 1 µM [3]: 18 µL/min/mg; microsomal CLint at 1 µM [4]: 22 µL/min/mg
Cc1cc(-c2ccc(NC(=O)C(CC(C)C)c3cc(C(F)(F)F)cc(C(F)(F)F)c3)cc2)ccn1 (centres undefined) | 820 | 
Cc1cc(-c2ccc(NC(=O)C(C)c3cccc(-c4ccc(C#N)cc4)c3)cc2)ccn1 (centres undefined) | 250 | 
COc1cc(NC(=O)[C@H](C)c2cc(C(F)(F)F)cc(C(F)(F)F)c2)ccc1-c1ccnc(C)c1 | 500 | 
Cc1cccc(C(C)C(=O)Nc2ccc(-c3ccnc(C)c3)cc2)c1 (centres undefined) | 540 | 
Cc1cc(-c2ccc(C(=O)NC(C)c3cc(C(F)(F)F)cc(C(F)(F)F)c3)cc2)ccn1 (centres undefined) | > 10000 | 
COc1cc(NS(=O)(=O)c2cc(Cl)cc(Cl)c2)ccc1-n1cnc(C)c1 | 1060 | 
Cc1cc(-c2ccc(NC(=O)C(C)c3cccc(-c4ccc(N5CCOCC5)nc4)c3)cc2)ccn1 (centres undefined) | 150 | 
Cc1cc(-c2ccc(NC(=O)C(C)(C)c3cc(C(F)(F)F)cc(C(F)(F)F)c3)cc2)ccn1 | > 10000 | 
CCC(C(=O)Nc1ccc(-c2ccnc(C)c2)cc1)c1cccc(C)c1 (centres undefined) | 1050 | 
Cc1cc(-c2ccc(NC(=O)C(C)c3cccc(-c4cccnc4)c3)cc2)ccn1 (centres undefined) | 1290 | 
Cc1cc(-c2ccc(NC(=O)C(C)c3cccc(-c4ccc(N(C)C)cc4)c3)cc2)ccn1 (centres undefined) | 120 | 
Cc1cccc(C(CC(C)C)C(=O)Nc2ccc(-c3ccnc(C)c3)cc2)c1 (single isomer, unassigned; isomer 2) | 1380 | 
Cc1cc(-c2ccc(C(=O)NCCc3ccc(Cl)cc3)cc2)ccn1 | 2120 | 
Cc1cc(-c2ccc(NC(=O)[C@H](C)c3cccc(-c4ccc(N5CCOCC5)cc4)c3)cc2)ccn1 | 31 | 
Cc1cc(-c2ccc(NC(=O)C(C)c3cccc(-c4ccc(C(=O)N(C)C)cc4)c3)cc2)ccn1 (centres undefined) | 260 | 
Cc1cc(-c2ccc(/C=C3\CCCN([C@@H](C)c4ccc(F)cc4)C3=O)cc2)ccn1 | 1530 | 
